According to ChEMBL document CHEMBL1201862, “PubChem BioAssay data set” (2004):
Activity calls are given as the source filed them.

Columns and labels:
[1] = viability of PTEN-deleted HCT116 cells – cell-based, HCT116 PTEN knockout, dose response (AID 1047); type: functional;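 further: HCT116 colon tumor cells with PTEN knocked out; cells exposed to compound for 60 hours before readout; potency for loss of cell viability measured by luminescence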
[2] = viability of HCT116 lacking mutant beta-catenin – cell-based, human colon tumor, dose response (AID 1045); type: functional;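 further: HCT116 colon tumor cells with beta catenin knocked out; cells exposed to compound for 60 hours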
INS1 = assay: INS-1E survival protection against cytokine death – cell-based, luminescence, retest, dose response (AID 449756); type: functional; settings: Rattus norvegicus;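 further: cell death triggered by IL-1 beta plus TNF-alpha plus IFN-gamma mixture; protective hits raise ATP signal compared with cytokine alone wells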
H9c2 = assay: cells; type: functional, cell-based; settings: Rattus norvegicus, H9c2, Myocardium
[3] = non-specific 3'UTR reporter inhibition in Clone20-Shn3RL – cell-based, Renilla luciferase, cherry-picked, counter-screen for Shn3 inhibitor project, dose response (AID 624133); type: functional
[4] = reduction of Shn3 3'UTR-driven luciferase in osteoblasts – cell-based, Clone20 osteoblasts, firefly luciferase, cherry-picked, dose response (AID 624132); type: functional;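 further: firefly luciferase luminescence from reporter carrying the Shn3 3'UTR in osteoblasts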
[5] = alpha-synuclein stem-loop luciferase translation blockers – H4 neuroglioma cells, luminescence, confirmation (AID 1988); type: functional, cell-based
[6] = Luminescence Cell-Based Dose Response HTS to Identify Inhibitors of 5'UTR Stem-Loop Driven Prion Protein mRNA Translation in H4 Neuroglioblastoma Cells. [Related pubchem assays: 1827 (Project Summary), 1813 (Primary HTS)]; type: functional
[7] = luciferase reporter signal suppression in cells – H4 neuroglioma cells, luminescence, dose response (AID 1990); type: functional, cell-based
Protein skinhead-1 = molecular target: T1, Protein skinhead-1 (Caenorhabditis elegans, UniProt P34707); type: functional
T1 sequence (P34707 whole entry): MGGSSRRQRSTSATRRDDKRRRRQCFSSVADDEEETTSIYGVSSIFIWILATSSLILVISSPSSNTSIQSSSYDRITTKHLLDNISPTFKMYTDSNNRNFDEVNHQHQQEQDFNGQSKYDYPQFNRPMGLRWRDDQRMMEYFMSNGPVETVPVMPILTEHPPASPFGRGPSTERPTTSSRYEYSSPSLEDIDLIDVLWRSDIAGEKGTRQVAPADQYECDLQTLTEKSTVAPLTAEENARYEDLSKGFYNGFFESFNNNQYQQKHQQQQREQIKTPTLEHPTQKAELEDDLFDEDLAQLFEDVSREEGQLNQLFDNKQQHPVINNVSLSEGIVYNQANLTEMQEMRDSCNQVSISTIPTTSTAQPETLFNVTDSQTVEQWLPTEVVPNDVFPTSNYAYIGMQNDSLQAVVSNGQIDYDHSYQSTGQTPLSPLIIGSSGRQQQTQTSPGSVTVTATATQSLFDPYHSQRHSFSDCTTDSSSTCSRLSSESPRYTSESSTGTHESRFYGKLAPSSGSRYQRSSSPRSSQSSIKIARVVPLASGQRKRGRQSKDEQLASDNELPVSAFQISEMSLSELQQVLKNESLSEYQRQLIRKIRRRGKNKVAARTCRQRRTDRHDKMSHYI

[8] = Luminescence Cell-Based Dose Retest to Confirm Inhibitors of Cancer Stem Cells. [Related pubchem assays (depositor defined):AID2717, AID2721]; type: functional; settings: Homo sapiens
[9] = molecular target: Heat shock protein HSP 90-alpha (Homo sapiens, UniProt P07900); type: functional, organism-based
BJ [10] = assay: BJ-TERT-LT-ST fibroblast viability loss – cell-based, RAS-independent, luminescence, dose response (AID 1935); type: functional; settings: Homo sapiens;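 further: BJ fibroblasts immortalized with TERT plus LT and ST oncogenes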
[11] = DRD fibroblast viability loss – cell-based, non-viral oncogenic, luminescence, dose response (AID 1934); type: functional; settings: Homo sapiens
BJ [12] = assay: BJ-TERT fibroblast viability loss – cell-based, RAS-independent, luminescence, dose response (AID 1933); type: functional; settings: Homo sapiens
BJ [13] = assay: cells; type: functional, cell-based; settings: Homo sapiens
[14] = NIH3T3 cell viability loss – ATP luminescence, mouse fibroblasts, counter-screen, dose response (AID 2010); type: functional, cell-based;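 further: cells exposed to compound for about 90 hours before reading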
[15] = Trypanosoma cruzi growth suppression in host cells – NIH3T3 host cells, beta-gal luminescence, confirmation (AID 2044); type: functional, cell-based;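 further: intracellular parasites grown in NIH/3T3 mouse fibroblasts as host cells; luminescent beta-galactosidase reporter signal from transgenic T. cruzi replicating inside host cells; inhibitors lower the luminescence signal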
[16] = molecular target: T2, Calpain-2 catalytic subunit (Sus scrofa, UniProt P43367); assay: m-calpain protease blockers, concentration series – biochemical, fluorogenic peptide substrate, dose response (AID 1420); type: functional
T2 sequence (P43367 whole entry): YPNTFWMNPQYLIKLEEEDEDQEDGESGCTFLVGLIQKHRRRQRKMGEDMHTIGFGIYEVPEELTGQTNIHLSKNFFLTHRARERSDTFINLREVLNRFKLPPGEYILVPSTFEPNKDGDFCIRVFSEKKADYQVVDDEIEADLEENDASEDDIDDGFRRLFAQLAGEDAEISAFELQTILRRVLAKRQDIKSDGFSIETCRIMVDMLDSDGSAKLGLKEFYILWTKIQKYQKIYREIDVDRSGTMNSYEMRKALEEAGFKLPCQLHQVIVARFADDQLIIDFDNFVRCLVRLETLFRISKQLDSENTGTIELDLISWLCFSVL

[17] = molecular target: Luciferin 4-monooxygenase (Photinus pyralis, UniProt P08659); assay: inhibition of purified Photinus pyralis luciferase – biochemical, luminescence, dose response (AID 1891)
Luciferin 4-monooxygenase, sequence (P08659 whole entry): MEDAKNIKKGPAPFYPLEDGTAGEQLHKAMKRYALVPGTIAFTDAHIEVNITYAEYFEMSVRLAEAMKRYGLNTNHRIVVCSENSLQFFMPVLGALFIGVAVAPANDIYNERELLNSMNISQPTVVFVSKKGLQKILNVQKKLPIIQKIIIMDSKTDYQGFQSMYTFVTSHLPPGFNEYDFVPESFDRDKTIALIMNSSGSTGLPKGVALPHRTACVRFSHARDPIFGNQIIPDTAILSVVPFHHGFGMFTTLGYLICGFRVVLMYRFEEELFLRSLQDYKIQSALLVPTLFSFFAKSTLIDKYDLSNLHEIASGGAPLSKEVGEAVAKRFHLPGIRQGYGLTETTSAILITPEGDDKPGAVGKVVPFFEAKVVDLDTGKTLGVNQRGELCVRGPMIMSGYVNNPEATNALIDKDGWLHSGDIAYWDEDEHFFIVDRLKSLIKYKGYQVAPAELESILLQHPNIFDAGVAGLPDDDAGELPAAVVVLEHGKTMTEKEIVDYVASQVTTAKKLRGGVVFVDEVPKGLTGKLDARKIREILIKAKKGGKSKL

[18] = Luminescence Cell-Based Dose Confirmation HTS to Identify Inhibitors of Platelet Dense Granule Release. [Related pubchem assays: 1663 (Primary HTS), 1678 (Summary of Project)]; type: functional
[19] = molecular target: T3, Heat shock factor protein 1 (Mus musculus, UniProt P38532); assay: enhancement of HSF1-driven luciferase signal – cell-based, NIH3T3, luminescence, dose retest, confirmation (AID 435004); type: functional;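 further: stress induced by proteasome inhibitor MG132 added 30 min after compound; luciferase reporter driven by HSF1 response element in NIH3T3 cells; actives raise luminescence as potentiators of the MG132 stress response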
T3 sequence (P38532 whole entry): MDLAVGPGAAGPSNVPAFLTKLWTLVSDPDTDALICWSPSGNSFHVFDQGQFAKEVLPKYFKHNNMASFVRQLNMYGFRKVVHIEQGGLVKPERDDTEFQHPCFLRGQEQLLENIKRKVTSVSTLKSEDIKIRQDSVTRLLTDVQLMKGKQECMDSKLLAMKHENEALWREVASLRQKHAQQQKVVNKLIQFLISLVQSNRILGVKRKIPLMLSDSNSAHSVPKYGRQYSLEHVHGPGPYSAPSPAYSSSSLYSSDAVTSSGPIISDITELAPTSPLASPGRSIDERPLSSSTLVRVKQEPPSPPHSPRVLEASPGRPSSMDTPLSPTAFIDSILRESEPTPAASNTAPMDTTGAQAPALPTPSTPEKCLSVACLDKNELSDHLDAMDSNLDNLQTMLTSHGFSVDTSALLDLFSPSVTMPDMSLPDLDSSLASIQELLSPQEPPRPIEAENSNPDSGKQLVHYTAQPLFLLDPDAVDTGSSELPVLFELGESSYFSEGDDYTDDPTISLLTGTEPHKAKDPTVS

Cytochrome P450 3A4 = Cytochrome P450 3A4 (Homo sapiens, UniProt P08684);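 further: CYP3A4 tested as one member of a cytochrome P450 panel screen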
Cytochrome P450 3A4, sequence (P08684 whole entry): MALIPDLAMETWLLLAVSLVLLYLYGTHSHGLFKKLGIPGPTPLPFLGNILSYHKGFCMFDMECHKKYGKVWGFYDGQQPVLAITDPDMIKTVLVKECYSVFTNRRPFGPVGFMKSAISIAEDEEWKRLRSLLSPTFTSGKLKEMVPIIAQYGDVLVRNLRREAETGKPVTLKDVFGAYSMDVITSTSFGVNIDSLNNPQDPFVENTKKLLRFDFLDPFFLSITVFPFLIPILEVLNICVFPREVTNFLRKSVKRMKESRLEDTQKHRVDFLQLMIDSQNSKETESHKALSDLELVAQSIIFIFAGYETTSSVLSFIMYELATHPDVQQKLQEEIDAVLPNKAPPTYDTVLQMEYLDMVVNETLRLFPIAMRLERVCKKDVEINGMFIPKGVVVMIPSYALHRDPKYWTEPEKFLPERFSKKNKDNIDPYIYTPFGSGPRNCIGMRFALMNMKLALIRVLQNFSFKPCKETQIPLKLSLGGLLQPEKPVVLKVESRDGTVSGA

Cytochrome P450 2C19 = Cytochrome P450 2C19 (Homo sapiens, UniProt P33261); assay: Cytochrome panel assay with activity outcomes. Panel member name: p450-cyp2c19 Compounds with AC50 equal or less than 10 uM are considered active; type: functional
Cytochrome P450 2C19, sequence (P33261 whole entry): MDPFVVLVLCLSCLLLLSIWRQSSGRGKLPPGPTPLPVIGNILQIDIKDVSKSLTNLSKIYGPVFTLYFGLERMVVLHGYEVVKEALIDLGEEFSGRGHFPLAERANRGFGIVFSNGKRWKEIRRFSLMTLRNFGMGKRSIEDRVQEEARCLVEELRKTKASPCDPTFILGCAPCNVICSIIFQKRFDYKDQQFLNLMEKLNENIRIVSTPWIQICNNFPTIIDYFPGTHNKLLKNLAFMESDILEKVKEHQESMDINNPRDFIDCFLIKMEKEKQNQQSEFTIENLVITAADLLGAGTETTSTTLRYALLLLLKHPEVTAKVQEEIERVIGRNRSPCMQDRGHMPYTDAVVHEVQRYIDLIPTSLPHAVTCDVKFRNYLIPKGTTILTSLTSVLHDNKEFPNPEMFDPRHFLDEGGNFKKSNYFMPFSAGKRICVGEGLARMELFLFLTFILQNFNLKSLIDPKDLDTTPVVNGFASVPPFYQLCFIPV

## O=C1/C(=C/c2cccnc2)CCC/C1=C\c1cccnc1
[1]
  EC50: 1.43 µM (active)
[2]
  EC50: 1.09 µM (active)
INS1
  AC50: 3.04 µM (active)

## Cn1c(-c2ccc(Cl)cc2)cnc1N
H9c2
  IC50: > 79 µM (inactive)

## S=C(Nc1ccccc1)Nc1ccc(OCc2ccc(Cl)cc2Cl)cc1
[3]
  AC50: 0.406 µM (active)
[4]
  AC50: 0.405 µM (active)

## COc1ccc(-c2csc(/C(C#N)=C/Nc3cc4oc5ccccc5c4cc3OC)n2)cc1
[5]
  EC50: > 120 µM (not active)
[6]
  EC50: 91.7 µM (active)
[7]
  EC50: > 120 µM (not active)

## CN(CCCN1CCOCC1)C(=O)c1cc(COc2cccc(C(F)(F)F)c2)on1
Protein skinhead-1
  IC50: > 100 µM (inactive)

## Cc1cccc(Nc2nc(N)c([N+](=O)[O-])c(N3CC(C)CC(C)C3)n2)c1 (centres undefined)
[1]
  EC50: 13.1 µM (active)
[2]
  EC50: 15.1 µM (active)
[8]
  AC50: 6.36 µM (active)
INS1
  AC50: 8.89 µM (active)
[9]
  AC50: 7.38 µM (active)

## O=C(CN1CCCC1)Nc1sc2c(c1C(=O)Nc1ccc(Br)cc1)CCC2
Protein skinhead-1
  IC50: > 100 µM (inactive)

## CC(=O)Nc1ccc(S(=O)(=O)NCc2ccc3c(c2)cc(C)n3C)cc1
Protein skinhead-1
  IC50: > 100 µM (inactive)

## Cc1cccc(-[n+]2c(-c3cccc(Br)c3)[nH]c3nc4ccccc4nc32)c1
[5]
  EC50: 10.5 µM (active)
[6]
  EC50: 13.7 µM (active)
[7]
  EC50: 13.2 µM (active)

## O=C1Nc2ccccc2/C1=C1\SC(=S)N(Cc2ccccc2Cl)C1=O
BJ [10]
  EC50: > 75 µM (inconclusive)
[11]
  EC50: 23 µM (active)
BJ [12]
  EC50: 10.8 µM (inconclusive)
BJ [13]
  EC50: > 150 µM (not active)

## CC(OC(=O)Cn1[nH]c(=O)c2ccccc2c1=O)C(=O)Nc1ccc(F)cc1Cl (centres undefined)
H9c2
  IC50: > 79 µM (inactive)

## Cc1cc(S(=O)(=O)NCc2ccccc2)ccc1OCC(=O)Nc1cccc([N+](=O)[O-])c1
[1]
  EC50: 13 µM (active)
[2]
  EC50: 14.9 µM (active)

## COc1ccc(-c2cc(=O)oc3cc(OCC(=O)N(C)C)ccc23)cc1
Protein skinhead-1
  IC50: > 100 µM (inactive)

## CCOc1cc(CNCCSc2nnnn2C)cc(Br)c1OCc1ccccc1F
[14]
  EC50: > 60 µM (not active)
[15]
  EC50: 2.13 µM (active)
Protein skinhead-1
  IC50: 24.1 µM (active)

## COc1cccc(C(=O)Nc2cccc(-c3nnc(-c4ccco4)o3)c2)c1
[16]
  IC50: > 50 µM (not active)
H9c2
  IC50: 28.2 µM (active)

## C=Cn1ccnc1P(=S)(c1ccc2c(c1)c1ccccc1n2CC)c1nccn1C=C
[1]
  EC50: 4.12 µM (active)
[2]
  EC50: 4.28 µM (active)
[8]
  AC50: 1.5 µM (active)

## O=[N+]([O-])c1ccc(N=Nc2c(Cl)cc(O)cc2Cl)cc1
[17]
  EC50: 0.137 µM (active)
BJ [10]
  EC50: 5.78 µM (active)
[11]
  EC50: 4.74 µM (active)
BJ [12]
  EC50: 5.98 µM (active)
[18]
  EC50: 1.98 µM (active)
BJ [13]
  EC50: 4.44 µM (active)
INS1
  AC50: 1.73 µM (active)
[9]
  AC50: 0.574 µM (active)

## Cc1ccc(C)c(Nc2nc3ccc(C)cc3n3cnnc23)c1
[5]
  EC50: > 120 µM (not active)
[6]
  EC50: > 120 µM (not active)
[7]
  EC50: 14.9 µM (active)

## Cn1c(-n2c(CCCN3C(=O)c4ccccc4C3=O)nc3ccccc3c2=O)nc2ccccc21
H9c2
  IC50: 15.3 µM (active)

## CCC1=Nc2cc(C(=O)NCCN3CCOCC3)ccc2Sc2ccccc21
BJ [10]
  EC50: > 150 µM (not active)
[11]
  EC50: > 150 µM (not active)
BJ [12]
  EC50: > 150 µM (not active)
BJ [13]
  EC50: > 150 µM (not active)

## O=C(Nc1ccc2c(c1)CN(Cc1ccco1)CC2)C1CCCO1 (centres undefined)
Protein skinhead-1
  IC50: > 100 µM (inactive)

## COc1ccc(C2=Nn3c(nnc3-c3ccccc3)SC2)cc1OC
[5]
  EC50: 0.318 µM (active)
[6]
  EC50: > 120 µM (not active)
[7]
  EC50: 54.9 µM (active)

## COc1cccc(-c2noc(-c3ccoc3C)n2)c1
Protein skinhead-1
  IC50: 86.4 µM (inactive)

## O=C(Nc1ccc(F)cc1)C1CCN(c2ncnc3c2nc2n3CCCCC2)CC1
[5]
  EC50: 15.8 µM (active)
[6]
  EC50: 16.9 µM (active)
[7]
  EC50: 17 µM (active)

## Cc1ccc2nc(NC(=O)/C=C/c3ccc4c(c3)OCO4)sc2c1
[1]
  EC50: 4.16 µM (active)
[2]
  EC50: 4.66 µM (active)
INS1
  AC50: 3.6 µM (active)

## CCOC(=O)N1CCN(C(=O)CSc2nc(O)c3cnn(-c4ccc(C)cc4)c3n2)CC1
H9c2
  IC50: 31.6 µM (inactive)

## Nc1nnc(SCC(=O)N2CCN(c3cccc(Cl)c3)CC2)n1-c1ccccc1
Protein skinhead-1
  IC50: > 100 µM (inactive)

## Cc1ccc(C)c(NC(=O)/C(C#N)=C/c2ccc[nH]2)c1
Protein skinhead-1
  IC50: > 100 µM (inactive)

## O=C(CCc1nc(O)c2ccccc2n1)NNC(=O)c1cccc(Cl)c1
H9c2
  IC50: > 79 µM (inactive)

## Cc1nn(-c2ccccc2)c(N2CCCC2)c1/C=N/NC(=O)c1cc(-c2ccccn2)nc2ccccc12
H9c2
  IC50: > 79 µM (inactive)

## Clc1ccc(Cn2cc(/C=N/n3cnnc3)c3ccccc32)cc1
[5]
  EC50: 13.1 µM (active)
[6]
  EC50: > 120 µM (not active)
[7]
  EC50: 14.6 µM (active)

## CC(=C/c1ccccc1)/C=N/n1cnnc1
[5]
  EC50: 13.5 µM (active)
[6]
  EC50: 20.4 µM (active)
[7]
  EC50: 11 µM (active)

## C/C(=N\NC(=O)CC1N=C(Cc2ccccc2)NNC1=O)c1ccc(C)cc1 (centres undefined)
[19]
  EC50: > 260 µM (inactive)
BJ [10]
  EC50: > 150 µM (inconclusive)
[11]
  EC50: 44.3 µM (active)
BJ [12]
  EC50: > 150 µM (not active)
BJ [13]
  EC50: > 150 µM (not active)

## O=C1/C(=C/c2ccccc2)CCCc2ccccc21
Protein skinhead-1
  IC50: 17.9 µM (active)

## Fc1ccc(CSc2ccc3nnc(-c4cccnc4)n3n2)cc1
H9c2
  IC50: > 79 µM (inactive)

## COc1ccc(Cc2nnc(O)c3ccccc23)cc1OC
H9c2
  IC50: 7.28 µM (active)
Cytochrome P450 3A4
  AC50: 22.4 µM (inconclusive)
Cytochrome P450 2C19
  AC50: 31.6 µM (inconclusive)
